The results in this text go back to patent US11691971B2, “Naphthyridinone compounds as JAK2 V617F inhibitors” (Incyte Corporation, priority 2020, dated 2023).

pIC50: −log10 of the molar value. Structures can show the parent of a compound that is named as a salt.

Test [1] deals with pseudo-kinase domain (JH2) of human V617F mutant JAK2 (Homo sapiens (Human), UniProt O60674, F794H/V617F/W659A/W777A). Nature of the test: JAK2 LanthaScreen JH2-V617F Binding Assay. The conditions noted are these: JAK2 JH2-V617F 0.26 nM, 50 nM tracer, 1 hour at 25° C.; read-out: JH2BINDING_V617F IC50. As for the experimental part:
The assay was conducted in black 384-well polystyrene plates in a final reaction volume of 20 μL. […] Non-specific binding was accessed in the presence of 2 mM ATP. After incubation for 1 hour at 25° C., LanthaScreen signals were read on a PHERAstar FS plate reader (BMG LABTECH). Data was analyzed with IDBS XLfit and GraphPad Prism 5.0 software using a four parameter dose response curve to determine IC50 for each compound.
For orientation: TR-FRET usually uses a lanthanide donor and a delayed reading to cut background.

Test [2] concerns the target pseudo-kinase domain (JH2) of human Wild Type JAK2 (Homo sapiens (Human), UniProt O60674, F794H/W659A/W777A). Kind of test: JAK2 LanthaScreen JH2-WT Binding Assay. The following applies: JAK2 JH2-WT 0.145 nM, 50 nM tracer, 1 hour at 25° C.; read-out: JH2BIND_WT IC50. As for the experimental part:
Example B. JAK2 LanthaScreen JH2-WT Binding Assay
(§1) The assay was conducted in black 384-well polystyrene plates in a final reaction volume of 20 μL. JAK2 JH2-WT (0.145 nM) was incubated with compounds (100 nL serially diluted in DMSO) in the presence of 50 nM Fluorescent JAK2-JH2 Tracer (MedChem Express Catalog #HY-102055) and 0.25 nM Streptavidin-Tb cryptate (Cisbio Part #610SATLB) in assay buffer (50 mM Tris, pH=7.5, 10 mM MgCl2, 0.01% Brij-35, 0.1% BSA, 1 mM EGTA, 5% Glycerol and 5 mM DTT). Non-specific binding was accessed in the presence of 2 mM ATP. After incubation for 1 hour at 25° C., LanthaScreen signals were read on a PHERAstar FS plate reader (BMG LABTECH). Data was analyzed with IDBS XLfit and GraphPad Prism 5.0 software using a four parameter dose response curve to determine IC50 for each compound.

Test [3] deals with catalytic domain (JH1, amino acids 808-1132) of human JAK2 (Homo sapiens (Human), UniProt O60674). Nature of the test: JAK2 HTRF Enzyme Activity Assay. The following applies: ATP 30 μM, 60 minutes at 25° C.; read-out: ENZ 30UMATP IC50. Format: biochemical. As for the experimental part:
Example D. JAK2 HTRF Enzyme Activity Assay
JAK2 enzyme activity assays utilize catalytic domain (JH1, amino acids 808-1132) of human JAK2 expressed as N-terminal His-tagged protein in a baculovirus expression system (BPS Bioscience, Catalog #40450). The assays was conducted in black 384-well polystyrene plates in a final reaction volume of 20 μL. JAK2 (0.015 nM) was incubated with compounds (100 nL serially diluted in DMSO) in the presence of ATP (30 μM or 1 mM) and 500 nM Biotin-labeled […] (SEQ ID NO.: 1) peptide (BioSource International, custom synthesis) in assay buffer (50 mM Tris, pH=7.5, 10 mM MgCl2, 0.01% Brij-35, 0.1% BSA, 1 mM EGTA, 5% Glycerol and 5 mM DTT) for 60 minutes at 25° C. The reactions were stopped by the addition of 10 μL of detection buffer (50 mM Tris, pH 7.8, 0.5 mg/mL BSA, 150 mM NaCl), supplemented with EDTA, LANCE Eu-W1024 anti-phosphotyrosine (PY20), (PerkinElmer, Catalog #AD0067) and Streptavidin SureLight APC (PerkinElmer Catalog #CR130-100), for a final concentration of 15 mM, 1.5 nM and 75 nM, respectively. HTRF signals were read after 30 minutes incubation at room temperature on a PHERAstar FS plate reader (BMG LABTECH). Data was analyzed with IDBS XLfit and GraphPad Prism 5.0 software using a four parameter dose response curve to determine IC50 for each compound.

The target of test [4] is catalytic domain (JH1, amino acids 826-1132) of human JAK2 (Homo sapiens (Human), UniProt O60674). Kind of test: JAK2 LanthaScreen JH1 Binding Assay. The conditions noted are these: JAK2 JH1 1.5 nM, 50 nM tracer, 2 hours at 25° C.; read-out: JH1BIND IC50. As for the experimental part:
Example A. JAK2 LanthaScreen JH1 Binding Assay
as §1, with “JAK2 JH1 binding assay utilizes catalytic domain (JH1, amino acids 826-1132) of human JAK2 expressed as N-terminal FLAG-tagged, biotinylated protein in a baculovirus expression system (Carna Biosciences, Product #08-445-20N). The” for “The”, “JH1 (1.5” for “JH2-WT (0.145”, “fluorescent JAK2-JH1 tracer” for “Fluorescent JAK2-JH2 Tracer (MedChem Express Catalog #HY-102055)”, “0.5” for “0.25”, “2 hours” for “1 hour”

Chain of catalytic domain (JH1, amino acids 826-1132) of human JAK2 (O60674 826-1132): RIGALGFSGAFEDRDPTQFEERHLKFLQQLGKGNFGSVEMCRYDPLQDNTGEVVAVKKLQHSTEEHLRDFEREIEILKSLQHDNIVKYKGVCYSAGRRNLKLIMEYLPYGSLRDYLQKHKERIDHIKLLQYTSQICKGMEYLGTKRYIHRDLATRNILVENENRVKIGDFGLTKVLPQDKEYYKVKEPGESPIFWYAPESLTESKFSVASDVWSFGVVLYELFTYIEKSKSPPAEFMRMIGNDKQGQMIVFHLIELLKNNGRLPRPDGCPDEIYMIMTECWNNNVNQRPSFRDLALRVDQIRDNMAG
Chain of pseudo-kinase domain (JH2) of human V617F mutant JAK2 (O60674 536-812 V617F/W659A/W777A/F794H): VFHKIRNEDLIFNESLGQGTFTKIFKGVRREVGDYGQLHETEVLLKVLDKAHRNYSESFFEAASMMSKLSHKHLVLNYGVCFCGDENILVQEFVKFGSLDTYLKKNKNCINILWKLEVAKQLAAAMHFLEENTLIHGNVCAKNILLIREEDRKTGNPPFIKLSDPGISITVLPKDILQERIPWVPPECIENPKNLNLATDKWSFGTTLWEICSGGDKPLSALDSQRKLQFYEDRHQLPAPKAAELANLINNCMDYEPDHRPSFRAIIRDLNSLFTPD
Chain of pseudo-kinase domain (JH2) of human Wild Type JAK2 (O60674 536-812 W659A/W777A/F794H): as the sequence (O60674 536-812 V617F/W659A/W777A/F794H) above, with F82V counted along it
Chain of catalytic domain (JH1, amino acids 808-1132) of human JAK2 (O60674 808-1132): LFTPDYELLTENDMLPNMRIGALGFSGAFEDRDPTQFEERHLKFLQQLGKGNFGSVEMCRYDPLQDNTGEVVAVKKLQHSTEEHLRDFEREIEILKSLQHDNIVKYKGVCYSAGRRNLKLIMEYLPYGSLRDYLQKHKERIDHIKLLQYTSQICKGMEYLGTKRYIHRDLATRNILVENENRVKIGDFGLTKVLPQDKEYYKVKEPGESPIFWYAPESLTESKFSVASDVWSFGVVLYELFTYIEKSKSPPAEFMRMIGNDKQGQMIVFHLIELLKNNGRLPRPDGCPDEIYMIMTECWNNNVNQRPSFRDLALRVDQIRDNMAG

Broadly, the pIC50 is −log10 of the IC50, conventionally taken in molar units. For `Cc1[nH]ncc1-c1c(Nc2cc(NC(=O)C3CC3)nc3cc[nH]c(=O)c23)cccc1C(F)(F)F` [Example 19, N-(4-((2-(5-Methyl-1H-pyrazol-4-yl)-3-(trifluoromethyl)phenyl)amino)-5-oxo-5,6-dihydro-1,6-naphthyridin-2-yl)cyclopropanecarboxamide Trifluoroacetic Acid Salt], the pIC50 was 5.00 to 6.00 in test [1], 5.00 to 6.00 in test [2], < 5.00 in test [3] and < 5.00 in test [4].
For `COc1c(Nc2cc(NC(=O)C3CC3)nc3cc[nH]c(=O)c23)cccc1-c1cnn(C2CCCC2)c1` [Example 3, N-(4-((3-(1-Cyclopentyl-1H-pyrazol-4-yl)-2-methoxyphenyl)amino)-5-oxo-5,6-dihydro-1,6-naphthyridin-2-yl)cyclopropanecarboxamide Trifluoroacetic Acid Salt], the pIC50 in test [1] was 6.30 to 7.00; in test [2], 6.30 to 7.00; in test [3], < 5.00; in test [4], < 5.00.
Consider `COc1c(Nc2cc(NC(=O)C3CC3)nc3cc[nH]c(=O)c23)cccc1-c1cn[nH]c1` [Example 1, N-(4-((2-Methoxy-3-(1H-pyrazol-4-yl)phenyl)amino)-5-oxo-5,6-dihydro-1,6-naphthyridin-2-yl)cyclopropanecarboxamide], for which the pIC50 is 6.30 to 7.00 in test [1], ≥ 7.00 in test [2], 5.00 to 6.00 in test [3] and 5.00 to 6.00 in test [4].
Consider `CS(=O)(=O)c1c(Nc2cc(NC(=O)C3CC3)nc3cc[nH]c(=O)c23)cccc1-c1cnn(C2CCOCC2)c1` [Example 13, N-(4-((2-(Methylsulfonyl)-3-(1-(tetrahydro-2H-pyran-4-yl)-1H-pyrazol-4-yl)phenyl)amino)-5-oxo-5,6-dihydro-1,6-naphthyridin-2-yl)cyclopropanecarboxamide Trifluoroacetic Acid Salt], for which the pIC50 in test [1] was 5.00 to 6.00; in test [2] it was 5.00 to 6.00; in test [3], < 5.00; in test [4] it was < 5.00.
`O=C(Nc1cc(Nc2cccc(-c3cnn(C4CCOCC4)c3)c2)c2c(=O)[nH]ccc2n1)C1CC1` [Example 6, N-(5-oxo-4-((3-(1-(tetrahydro-2H-pyran-4-yl)-1H-pyrazol-4-yl)phenyl)amino)-5,6-dihydro-1,6-naphthyridin-2-yl)cyclopropanecarboxamide Trifluoroacetic Acid Salt]: the pIC50 was < 5.00 in test [1], < 5.00 in test [2], 5.00 to 6.00 in test [3] and 5.00 to 6.00 in test [4].
`CNc1ccccc1Nc1cc(NC(=O)C2CC2)nc2cc[nH]c(=O)c12` [Example 22, N-(4-((2-(Methylamino)phenyl)amino)-5-oxo-5,6-dihydro-1,6-naphthyridin-2-yl)cyclopropanecarboxamide Trifluoroacetic Acid Salt]: the pIC50 in test [1], in test [2], in test [3] and in test [4] was < 5.00 throughout.
As for `COc1c(Nc2cc(NC(=O)C3CC3)nc3ccn(C)c(=O)c23)cccc1-c1cnc(C2CCOCC2)s1` [Example 10, N-(4-((2-Methoxy-3-(2-(tetrahydro-2H-pyran-4-yl)thiazol-5-yl)phenyl)amino)-6-methyl-5-oxo-5,6-dihydro-1,6-naphthyridin-2-yl)cyclopropanecarboxamide Trifluoroacetic Acid Salt], the negative-log IC50 (pIC50) in test [1] was 5.00 to 6.00; in test [2] it was 5.00 to 6.00; in test [3] it was < 5.00; in test [4], < 5.00.
With `O=C(Nc1cc(Nc2ccccc2OC2CC2)c2c(=O)[nH]ccc2n1)C1CC1` [Example 24, N-(4-((2-Cyclopropoxyphenyl)amino)-5-oxo-5,6-dihydro-1,6-naphthyridin-2-yl)cyclopropanecarboxamide Trifluoroacetic Acid Salt], the pIC50 in test [1] is 5.00 to 6.00; in test [2], 5.00 to 6.00; in test [3] it was 6.00 to 6.30; in test [4], 5.00 to 6.00.
In the case of `O=C(Nc1cc(Nc2cccc(C(F)(F)F)c2-c2cn[nH]c2)c2c(=O)[nH]ccc2n1)C1CC1` [Example 18, N-(4-((2-(1H-pyrazol-4-yl)-3-(trifluoromethyl)phenyl)amino)-5-oxo-5,6-dihydro-1,6-naphthyridin-2-yl)cyclopropanecarboxamide Trifluoroacetic Acid Salt], the pIC50 is 6.00 to 6.30 in test [1], 6.00 to 6.30 in test [2], < 5.00 in test [3] and < 5.00 in test [4].
On to `COc1c(Nc2cc(NC(=O)C3CC3)nc3cc[nH]c(=O)c23)cccc1-c1cnc(C2CCOCC2)s1` [Example 2, N-(4-((2-Methoxy-3-(2-(tetrahydro-2H-pyran-4-yl)thiazol-5-yl)phenyl)amino)-5-oxo-5,6-dihydro-1,6-naphthyridin-2-yl)cyclopropanecarboxamide Trifluoroacetic Acid Salt], for which the negative-log IC50 (pIC50) in test [1] was ≥ 7.00; in test [2], ≥ 7.00; in test [3], < 5.00; in test [4] it was < 5.00.
`COc1ccccc1Nc1cc(NC(=O)C2CC2)nc2cc[nH]c(=O)c12` [Example 21, N-(4-((2-Methoxyphenyl)amino)-5-oxo-5,6-dihydro-1,6-naphthyridin-2-yl)cyclopropanecarboxamide]: the negative-log IC50 (pIC50) in test [1] was < 5.00; in test [2] it was 5.00 to 6.00; in test [3], 5.00 to 6.00; in test [4], 5.00 to 6.00.
On to `O=C(Nc1cc(Nc2cccc(Cl)c2-c2cn[nH]c2)c2c(=O)[nH]ccc2n1)C1CC1` [Example 16, N-(4-((3-Chloro-2-(1H-pyrazol-4-yl)phenyl)amino)-5-oxo-5,6-dihydro-1,6-naphthyridin-2-yl)cyclopropanecarboxamide Trifluoroacetic Acid Salt], for which the pIC50 was 6.00 to 6.30 in test [1], 6.00 to 6.30 in test [2], 5.00 to 6.00 in test [3] and 5.00 to 6.00 in test [4].
On to `COc1c(Nc2cc(NC(=O)C3CC3)nc3cc[nH]c(=O)c23)cccc1-c1cnn(C(C)C(N)=O)c1` (stereo not shown) [Example 8, N-(4-((3-(1-(1-Amino-1-oxopropan-2-yl)-1H-pyrazol-4-yl)-2-methoxyphenyl)amino)-5-oxo-5,6-dihydro-1,6-naphthyridin-2-yl)cyclopropanecarboxamide Trifluoroacetic Acid Salt], for which the pIC50 in test [1] is ≥ 7.00; in test [2] it was ≥ 7.00; in test [3], 6.30 to 7.00; in test [4], 5.00 to 6.00.
